Assay results as given in patent US10174057B2, “Metallacrown complexes and methods of making the same” (THE REGENTS OF THE UNIVERSITY OF MICHIGAN, priority 2013, dated 2019).

What was measured:
[1] = Luminescence lifetimes under excitation at 355 nm; assay type: physicochemical; conditions: for τobs: 298 K, excitation 355 nm; for q (inner sphere hydration number): calculated from kCH3OH and kCD3OD
Experimental: (§1) Luminescence data were collected on samples that were placed into 2.4 mm i.d. quartz capillaries or quartz Suprasil cells. Emission and excitation spectra were measured on a Horiba-Jobin-Yvon Fluorolog 3 spectrofluorimeter equipped with either a visible photomultiplier tube (PMT) (220-800 nm, R928P; Hamamatsu), a NIR solid-state InGaAs detector cooled to 77 K (800-1600 nm, DSS-IGA020L; Jobin-Yvon), or NIR PMTs (950-1450 nm, H10330-45; 950-1650 nm, H10330-75; Hamamatsu). All spectra were corrected for instrumental functions.
Luminescence lifetimes were determined under excitation at 355 nm provided by a Nd:YAG laser (YG 980; Quantel), while the signal was detected in the NIR by the aforementioned PMT (H10330-75). The output signal from the detectors was then fed to a 500 MHz bandpass digital oscilloscope (TDS 754C; Tektronix) and then transferred to a PC for treatment with Origin 8®. Luminescence lifetimes are averages of at least three independent measurements.
(§2) Luminescence spectra were recorded for the Ln(III) metallacrown complexes (Ln(III)=Yb, Nd, Er) in the solid state and in solution (CH3OH/CD3OD) using excitation at 420 nm or 370 nm.

[2] = Quantum yields in the NIR, absolute method using an integration sphere; assay type: physicochemical; conditions: 298 K, excitation 370 nm
Experimental: as §1
Quantum yields in the NIR were determined with a Fluorolog 3 spectrofluorimeter according to an absolute method using an integration sphere (GMP SA). Each sample was measured several times under slightly different experimental conditions. Estimated experimental error for quantum yields determination is 10%.
as §2

[3] = tested on: HeLa (Human Epithelial Ovarian Carcinoma) cells; test: NIR epifluorescence microscopy on HeLa cells; assay type: cell-based
Experimental: The preparation of the Yb(III) Metallacrowns and the description of the NIR Epifluorescence Microscopy are applicable for both experiments.
Yb^3+[12-MC-4]2[24-MC-8] was prepared as described above, and was dissolved in DMSO at an appropriate concentration, and was used as such or was incubated with beads for incorporation therein.
NIR epifluorescence microscopy was performed with an Axio Observer Z1 fluorescence inverted microscope (Zeiss, Le Pecq, France) equipped with an EMCCD Evolve 512 photometric camera (Roper Scientific). The EMCCD Evolve 512 photometric camera was linked to a computer driving the acquisition software Axiovision (Zeiss). The inverted microscope was equipped with Zeiss objectives (immersion Plan Apochromat 63x (Numerical Aperture (NA)=1.4), Plan Neofluar 40x (NA=0.75), Plan Apochromat 20x (NA=0.8)). A Zeiss HXP-120 light source (metal halide) was used as the excitation system, and was combined with a UV cube filter unit as follows: 377 nm band pass 50 nm filter for excitation, and long pass 805 nm filter for Yb(III) emission in the NIR range. […]
NIR Epifluorescence Microscopy was used to observe the treated cells after 24 hours of incubation with Yb^3+[12-MC-4]2[24-MC-8] and the untreated cells. […] As illustrated in both FIGS. 8E and 8F, the emission in the NIR range for the untreated HeLa cells was not detected. […]

[4] = Absorption spectra in methanol; assay type: physicochemical; conditions: 298 K
Excerpt: FIG. 2 is a graph of the absorption spectra of Ln(III) MC complexes (2.04·10^−5 M, Ln(III)=Gd, Nd, Yb, Er) and quinaldichydroxamic acid (quinHA) (2.42·10^−4 M) in methanol at 298 K, where the absorption spectrum of quinHA was multiplied by 16 times;
Upon deprotonation and formation of the metallacrown framework, Ln(III)[12-MC-4]2[24-MC-8], a broad absorption appears in the near-visible region with an apparent maximum at 380 nm (ε≈5.5·10^4 M^−1 cm^−1) and cutoff at 470 nm. In FIG. 2, the results are shown for the Gd(III), Nd(III), Yb(III), and Er(III).

[5] = Emission spectra and ligand energy levels (singlet, triplet, CT); assay type: physicochemical; conditions: for energy of the triplet state: determined on the 0-0 transition
Experimental: FIG. 3 is a graph depicting the corrected and normalized emission spectra of quinHA (10 mg/mL) under excitation at 290 in methanol at 77 K and Gd(III) MC (10 mg/mL) under excitation at 290 nm or 340 nm in methanol at 298 K and 77 K;
as §1
At 77 K, strong green luminescence centered at 510 nm with a weak band in the 325-460 nm range. The latter band disappeared upon enforcing a delay of 100 μs, so it can be assigned to a short-lived fluorescence while the green emission is phosphorescence. The energy of the triplet state of quinHA, determined on the 0-0 transition, can therefore be estimated as 21 000 cm−1 (476 nm).
The energy gap between ground and excited states for Gd(III) is very high and, therefore, it is impossible for the Gd(III) ion in the corresponding metallacrown complex to be sensitized with 300-400 nm excitation. It is believed that this feature can be used to determine the energy levels of the metallacrown complexes in the absence of energy transfer to the Ln(III) ion. The Gd(III) metallacrown complex was exposed to UV excitation into the ligand-based charge transfer band at 340 nm at room temperature, resulting in a weak broad-band emission with a maximum at 580-590 nm (FIG. 3). Lowering the temperature to 77 K led to a slight sharpening of the band and a shift of the maximum to 545-555 nm (FIG. 3). […] The position of the triplet state determined from the spectrum of Gd(III) metallacrown complex was the same as for quinHA within experimental error, 20 920 cm^−1 (478 nm). The position of the lowest excited singlet and the ligand-based charge transfer (CT) states were determined from the intersection of the absorption and emission (fluorescence) spectra of quinHA and Gd^3+[12-MC-4]2[24-MC-8], respectively, and found to be located at 29 850 cm^−1 (335 nm) and 21 560 cm^−1 ([…]). A proposed schematic diagram of the quinHA ligand's energy levels (singlet, triplet and CT) with respect to the energy levels of Yb(III), Nd(III) and Er(III) lanthanide ions and possible energy migration paths are shown in FIG. 4.

[6] = excitation 290 nm, 77 K, methanol
[7] = intersection of absorption and emission spectra

Row | Molecule | τobs ([1]; CD3OD, 1 mg/mL) | τobs ([1]; CH3OH, 1 mg/mL) | τobs ([1]; Solid) | QLn/%L (quantum yield) ([2]; CD3OD, 1 mg/mL) | QLn/%L (quantum yield) ([2]; CH3OH, 1 mg/mL) | QLn/%L (quantum yield) ([2]; Solid) | τobs ([1]; CD3OD, 0.1 mg/mL) | τobs ([1]; CH3OH, 0.1 mg/mL) | q (inner sphere hydration number) ([1]; CH3OH, 0.1 mg/mL) | q (inner sphere hydration number) ([1]; CH3OH, 1 mg/mL) | QLn/%L (quantum yield) ([2]; CD3OD, 0.1 mg/mL) | QLn/%L (quantum yield) ([2]; CH3OH, 0.1 mg/mL) | energy of the triplet state [5] | also measured
1 | ErZn16(quinHA)16(OTf)3 [Er(III)MC] | 11.40(3) μs | 1.25(1) μs | 5.73(2) μs | 3.60(6) · 10^−2% | 9.9(3) · 10^−4% | 4.2(1) · 10^−2% | – | – | – | – | – | – | – | –
2 | YbZn16(quinHA)16(OTf)3 [Yb(III)MC] | 150.7(2) μs | 14.88(1) μs | 47.8(4) μs | 2.88(2) % | 0.25(1) % | 2.44(4) % | 144.6(5) μs | 15.14(4) μs | 0 | 0 | 2.91(7) % | 0.27(1) % | – | emission in the NIR range of treated cells ([3]; Experiment 1: 1 μM, 24 hours, λex=377 nm, long pass 805 nm, 500 ms exposure): unambiguously detected; Yb(III) emission in the NIR range of treated cells ([3]; both experiments (1 μM 24 h; 5 μM 11-12 h), short exposure times): unambiguously detected
3 | O=C(NO)c1ccc2ccccc2n1 [quinHA, quinaldichydroxamic acid] | – | – | – | – | – | – | – | – | – | – | – | – | 21 000 cm^−1 | long wavelength absorption cutoff [4]: 340 nm; green luminescence (phosphorescence) centre [5, 6]: 510 nm; weak band (short-lived fluorescence) [5, 6]: 325-460 nm; emission upon UV excitation ([5]; excitation 290 nm, room temperature, methanol): did not display any detectable emission; position of the lowest excited singlet state [5, 7]: 29 850 cm^−1; melting point: 146 to 148 °C
4 | GdZn16(quinHA)16(OTf)3 [Gd(III) metallacrown complex] | – | – | – | – | – | – | – | – | – | – | – | – | 20 920 cm^−1 | emission maximum ([5]; 77 K, time delay of 100 μs): 510 nm; emission maximum ([5]; excitation 340 nm, 77 K): 545-555 nm; emission maximum ([5]; excitation 340 nm, room temperature, weak broad-band emission): 580-590 nm; position of the ligand-based charge transfer (CT) state [5, 7]: 21 560 cm^−1
5 | NdZn16(quinHA)16(OTf)3 [Nd(III)MC] | 4.11(3) μs | 1.16(1) μs | 1.79(2) μs | 1.35(1) % | 0.38(1) % | 1.13(4) % | 4.00(1) μs | 1.16(1) μs | 0 | 0 | 1.38(1) % | 0.40(1) % | – | –
